# Source: ChEMBL document CHEMBL4024702, “Covalent Modifiers: A Chemical Perspective on the Reactivity of α,β-Unsaturated Carbonyls with Thiols via Hetero-Michael Addition Reactions” (J Med Chem, 2017)
# Tests used:
# [1] = Thiol reactivity of the compound in PBS/DMSO buffer assessed as pseudo-first order rate constant for adduct formation
# MCF7 = assay: Cytotoxicity against human MCF7 cells assessed as reduction in cell viability after 96 hrs by SRB asssay; assay type: functional, cell-based; conditions: MCF7, 96 h
# HT-29 = assay: Cytotoxicity against human HT-29 cells assessed as reduction in cell viability after 96 hrs by SRB asssay; assay type: functional, cell-based; conditions: HT-29, 96 h
# A-431 = assay: Cytotoxicity against human A431 cells assessed as reduction in cell viability after 96 hrs by SRB asssay; assay type: functional, cell-based; conditions: A-431, 96 h
# 518A2 = assay: Cytotoxicity against human 518A2 cells assessed as reduction in cell viability after 96 hrs by SRB asssay; assay type: functional, cell-based; conditions: 518A2, 96 h
# A549 = assay: Cytotoxicity against human A549 cells assessed as reduction in cell viability after 96 hrs by SRB asssay; assay type: functional, cell-based; conditions: A549, 96 h
# [2] = Cysteamine reactivity of the compound in TRIS-HCL assessed as second order rate constant at 40 uM and pH 7.4
# [3] = Cytotoxicity against human H1HeLa cells after 2 days by XTT/PMS dye based assay; assay type: cell-based, H1-HeLa
# rhinovirus B14 [4] = assay: Antiviral activity against rhinovirus serotype 14 infected in human H1HeLa cells after 2 days by XTT/PMS dye based assay; assay type: functional, cell-based; conditions: Rhinovirus B, H1-HeLa, 48 h
# rhinovirus B14 [5] = assay: Irreversible inhibition of human rhinovirus serotype 14 3C protease assessed as ratio of Kobs/I by spectrofluorimetric analysis
# [6] = Glutathione reactivity of the compound in DMSO and phosphate buffer assessed as second order rate constant for adduct formation
compound,measurement,setting,value
CS(=O)(=O)/C=C/CNC(=O)c1ccccc1,K,[1],3.9 ×10⁻³ /s
COC(=O)/C=C/CNC(=O)c1ccc(OC)cc1,K,[1],3.7 ×10⁻⁴ /s
CC1=CC[C@]23O[C@@]2(C)CC[C@@H]2[C@H](OC(=O)[C@H]2CSc2ccccc2C(=O)O)[C@@H]13,IC50,MCF7,16.9 µM
same,IC50,HT-29,17.8 µM
same,IC50,A-431,13.6 µM
same,IC50,518A2,16.9 µM
same,IC50,A549,10.1 µM
COc1ccc(C(C(=O)c2ccc(OC)cc2OC)C(SCCN)c2ccc(OC)c(OC)c2)cc1 (centres undefined),K,[2],0.0086 M⁻¹ s⁻¹
CC(C)C[C@H](NC(=O)OCc1ccccc1)C(=O)N[C@@H](Cc1ccccc1)C(=O)N[C@H](/C=C/C(=O)n1ccc2ccccc21)CCC(N)=O,CC50 at 48 h,[3],29 µM
same,EC50,rhinovirus B14 [4],1.8 µM
same,Ratio,rhinovirus B14 [5],53000 M⁻¹ s⁻¹
COc1ccc(C(=O)C(I)C(SCCN)c2ccc(OC)c(OC)c2)c(OC)c1 (centres undefined),K,[2],0.28 M⁻¹ s⁻¹
CCCC/C=C/C(C)=O,K,[6],11.4 M⁻¹ s⁻¹
CC(C)C[C@H](NC(=O)OCc1ccccc1)C(=O)N[C@@H](Cc1ccccc1)C(=O)N[C@H](/C=C/C(=O)O)CCC(N)=O,CC50 at 48 h,[3],> 100 µM
same,EC50,rhinovirus B14 [4],> 100 µM
same,Ratio,rhinovirus B14 [5],30 M⁻¹ s⁻¹
CCOC(=O)/C(F)=C/[C@H](CCC(N)=O)NC(=O)[C@H](Cc1ccccc1)NC(=O)[C@H](CC(C)C)NC(=O)OCc1ccccc1,CC50 at 48 h,[3],> 320 µM
same,EC50,rhinovirus B14 [4],> 320 µM
same,Ratio,rhinovirus B14 [5],60 M⁻¹ s⁻¹
CC1=CC[C@]23O[C@@]2(C)CC[C@@H]2[C@H](OC(=O)[C@H]2CN2CCSCC2)[C@@H]13,IC50,MCF7,13.4 µM
same,IC50,HT-29,16.2 µM
same,IC50,A-431,16.9 µM
same,IC50,518A2,13.2 µM
same,IC50,A549,4.76 µM
CC(C)C[C@H](NC(=O)OCc1ccccc1)C(=O)N[C@@H](Cc1ccccc1)C(=O)N[C@H](/C=C/C(=O)c1ccc([N+](=O)[O-])cc1)CCC(N)=O,CC50 at 48 h,[3],32 µM
same,EC50,rhinovirus B14 [4],> 32 µM
same,Ratio,rhinovirus B14 [5],310000 M⁻¹ s⁻¹
CC(=O)C=C(C)C,K,[6],0.208 M⁻¹ s⁻¹
CCCCC/C=C/C=O,K,[6],18 M⁻¹ s⁻¹
CS(=O)(=O)/C=C/CNC(=O)c1ccc([N+](=O)[O-])cc1,K,[1],4 ×10⁻³ /s
CCCC/C=C/C=C/C=O,K,[6],3.49 M⁻¹ s⁻¹
CC(C)=CC=O,K,[6],1.71 M⁻¹ s⁻¹
C=CS(=O)(=O)Nc1ccc(OC)cc1,K,[1],2.8 ×10⁻² /s
O=C(/C=C/c1ccccc1)c1ccccc1,K,[2],3 M⁻¹ s⁻¹
CC1=CCCC1=O,K,[6],0.2 M⁻¹ s⁻¹
CC1=CC[C@]23O[C@@]2(C)CC[C@@H]2[C@H](OC(=O)[C@H]2CN2CCCCC2)[C@@H]13,IC50,MCF7,16.9 µM
same,IC50,HT-29,8.1 µM
same,IC50,A-431,18.9 µM
same,IC50,518A2,14.3 µM
same,IC50,A549,4.76 µM
C=CC(=O)Nc1ccc([N+](=O)[O-])cc1,K,[1],8 ×10⁻² /s
C/C=C(\C)C(C)=O,K,[6],0.779 M⁻¹ s⁻¹
C=CC(=O)Nc1ccccc1,K,[1],1.6 ×10⁻⁴ /s
C=C(C)C=O,K,[6],203 M⁻¹ s⁻¹
C=C1C(=O)O[C@@H]2[C@H]3C(C)=CC[C@@]34O[C@@]4(C)CC[C@@H]12 [ARGLABIN],IC50,MCF7,2.33 µM
same,IC50,HT-29,7 µM
same,IC50,A-431,4.48 µM
same,IC50,518A2,6.72 µM
same,IC50,A549,2.21 µM
C=CC(=O)OCC,K,[6],10.6 M⁻¹ s⁻¹
CC(C)C[C@H](NC(=O)OCc1ccccc1)C(=O)N[C@@H](Cc1ccccc1)C(=O)N[C@H](/C=C/C(=O)N(C)C)CCC(N)=O,CC50 at 48 h,[3],> 100 µM
same,EC50,rhinovirus B14 [4],56 µM
same,Ratio,rhinovirus B14 [5],1300 M⁻¹ s⁻¹
CCOC(=O)/C(C)=C/[C@H](CCC(N)=O)NC(=O)[C@H](Cc1ccccc1)NC(=O)[C@H](CC(C)C)NC(=O)OCc1ccccc1,CC50 at 48 h,[3],> 320 µM
same,EC50,rhinovirus B14 [4],3 µM
same,Ratio,rhinovirus B14 [5],7300 M⁻¹ s⁻¹
CCN(CC)c1ccc(C(=O)/C=C/[C@H](CCC(N)=O)NC(=O)[C@H](Cc2ccccc2)NC(=O)[C@H](CC(C)C)NC(=O)OCc2ccccc2)cc1,CC50 at 48 h,[3],25 µM
same,EC50,rhinovirus B14 [4],> 25 µM
same,Ratio,rhinovirus B14 [5],4500 M⁻¹ s⁻¹
COc1ccc(C(=O)C(c2ccccc2)C(SCCN)c2ccc(OC)c(OC)c2)c(OC)c1 (centres undefined),K,[2],0.0067 M⁻¹ s⁻¹
COC(=O)/C=C/CNC(=O)c1ccc([N+](=O)[O-])cc1,K,[1],5.9 ×10⁻⁴ /s
CCC/C=C/C/C=C/C=O,K,[6],22.8 M⁻¹ s⁻¹
COc1ccc(C(=O)C(Cl)C(SCCN)c2ccc(OC)c(OC)c2)c(OC)c1 (centres undefined),K,[2],1.6 M⁻¹ s⁻¹
CC/C=C/C=O,K,[6],28.3 M⁻¹ s⁻¹
O=C/C=C/c1ccccc1,K,[2],0.64 M⁻¹ s⁻¹
CCOC(=O)/C=C/[C@H](CCC(N)=O)NC(=O)[C@H](Cc1ccccc1)NC(=O)[C@H](CC(C)C)NC(=O)OCc1ccccc1,CC50 at 48 h,[3],> 320 µM
CC(=O)N1CC/C(=C\[C@H](CCC(N)=O)NC(=O)[C@H](Cc2ccccc2)NC(=O)[C@H](CC(C)C)NC(=O)OCc2ccccc2)C1=O,CC50 at 48 h,[3],> 100 µM
same,EC50,rhinovirus B14 [4],0.71 µM
same,Ratio,rhinovirus B14 [5],156000 M⁻¹ s⁻¹
C=CC(=O)Nc1ccc(OC)cc1,K,[1],3.9 ×10⁻⁵ /s
COc1ccc(C(=O)CC(SCCN)c2ccc(OC)c(OC)c2)c(OC)c1 (centres undefined),K,[2],0.19 M⁻¹ s⁻¹
COc1ccc(C(=O)C(F)C(SCCN)c2ccc(OC)c(OC)c2)c(OC)c1 (centres undefined),K,[2],0.017 M⁻¹ s⁻¹
CCNC(=O)/C=C/[C@H](CCC(N)=O)NC(=O)[C@H](Cc1ccccc1)NC(=O)[C@H](CC(C)C)NC(=O)OCc1ccccc1,CC50 at 48 h,[3],> 320 µM
same,EC50,rhinovirus B14 [4],> 320 µM
same,Ratio,rhinovirus B14 [5],350 M⁻¹ s⁻¹
C/C=C(\C)C(=O)OC,K,[6],0.007 M⁻¹ s⁻¹
C#CCOC(=O)C=C,K,[6],51.4 M⁻¹ s⁻¹
CC1=CC[C@]23O[C@@]2(C)CC[C@@H]2[C@H](OC(=O)[C@H]2CN(C)C)[C@@H]13,IC50,MCF7,1.85 µM
same,IC50,HT-29,10.8 µM
same,IC50,A-431,5.19 µM
same,IC50,518A2,5.54 µM
same,IC50,A549,1.95 µM
CCCCC/C=C/C(=O)OC,K,[6],0.785 M⁻¹ s⁻¹
COC(=O)/C=C\[C@H](CCC(N)=O)NC(=O)[C@H](Cc1ccccc1)NC(=O)[C@H](CC(C)C)NC(=O)OCc1ccccc1,CC50 at 48 h,[3],> 320 µM
same,EC50,rhinovirus B14 [4],4.2 µM
same,Ratio,rhinovirus B14 [5],2400 M⁻¹ s⁻¹
CC(C)C[C@H](NC(=O)OCc1ccccc1)C(=O)N[C@@H](Cc1ccccc1)C(=O)N[C@H](/C=C1\CCOC1=O)CCC(N)=O,CC50 at 48 h,[3],> 320 µM
same,EC50,rhinovirus B14 [4],5.2 µM
same,Ratio,rhinovirus B14 [5],10900 M⁻¹ s⁻¹
COc1ccc(C(=O)C(C)C(SCCN)c2ccc(OC)c(OC)c2)c(OC)c1 (centres undefined),K,[2],0.0075 M⁻¹ s⁻¹
COc1ccc(C(=O)C(C(=O)O)C(SCCN)c2ccc(OC)c(OC)c2)c(OC)c1 (centres undefined),K,[2],0.0037 M⁻¹ s⁻¹
C=CS(=O)(=O)Nc1ccc([N+](=O)[O-])cc1,K,[1],9 ×10⁻³ /s
COc1cc(/C=C/C(=O)CC(=O)/C=C/c2ccc(O)c(OC)c2)ccc1O,K,[2],0.066 M⁻¹ s⁻¹
C=CC#CC(C)=O,K,[6],80 M⁻¹ s⁻¹
CC(=O)/C=C/[C@H](CCC(N)=O)NC(=O)[C@H](Cc1ccccc1)NC(=O)[C@H](CC(C)C)NC(=O)OCc1ccccc1,CC50 at 48 h,[3],60 µM
same,EC50,rhinovirus B14 [4],2 µM
same,Ratio,rhinovirus B14 [5],54000 M⁻¹ s⁻¹
COc1ccc(C(=O)NC/C=C/S(C)(=O)=O)cc1,K,[1],2.8 ×10⁻³ /s
CC(C)C[C@H](NC(=O)OCc1ccccc1)C(=O)N[C@@H](Cc1ccccc1)C(=O)N[C@H](/C=C/C(=O)N1CCOC1=O)CCC(N)=O,CC50 at 48 h,[3],> 100 µM
same,EC50,rhinovirus B14 [4],1.6 µM
same,Ratio,rhinovirus B14 [5],600000 M⁻¹ s⁻¹
CC(C)C[C@H](NC(=O)OCc1ccccc1)C(=O)N[C@@H](Cc1ccccc1)C(=O)N[C@H](/C=C/C(=O)N1CC=CC1)CCC(N)=O,CC50 at 48 h,[3],44 µM
same,EC50,rhinovirus B14 [4],> 44 µM
same,Ratio,rhinovirus B14 [5],8500 M⁻¹ s⁻¹
C/C=C/C(C)=O,K,[6],26.7 M⁻¹ s⁻¹
COC(=O)/C=C/[C@H](CCC(N)=O)NC(=O)[C@H](Cc1ccccc1)NC(=O)[C@H](CC(C)C)NC(=O)OCc1ccccc1,CC50 at 48 h,[3],> 320 µM
same,EC50,rhinovirus B14 [4],1.3 µM
same,Ratio,rhinovirus B14 [5],20000 M⁻¹ s⁻¹
C=CCOC(=O)C=C,K,[6],19.6 M⁻¹ s⁻¹
C=CS(=O)(=O)Nc1ccccc1,K,[1],7.2 ×10⁻² /s
COC(=O)/C=C/CNC(=O)c1ccccc1,K,[1],3.7 ×10⁻⁴ /s
COc1ccc(C(=O)C(c2ccc([N+](=O)[O-])cc2)C(SCCN)c2ccc(OC)c(OC)c2)c(OC)c1 (centres undefined),K,[2],0.29 M⁻¹ s⁻¹
CCOC(=O)C(C(=O)c1ccc(OC)cc1OC)C(SCCN)c1ccc(OC)c(OC)c1 (centres undefined),K,[2],0.28 M⁻¹ s⁻¹
C=C(C=O)CC,K,[6],59.4 M⁻¹ s⁻¹
CC(C)C[C@H](NC(=O)OCc1ccccc1)C(=O)N[C@@H](Cc1ccccc1)C(=O)N[C@H](/C=C/C(=O)c1ccccc1)CCC(N)=O,CC50 at 48 h,[3],16 µM
same,EC50,rhinovirus B14 [4],4 µM
same,Ratio,rhinovirus B14 [5],500000 M⁻¹ s⁻¹
C/C=C/C(=O)OC,K,[6],0.164 M⁻¹ s⁻¹
C=CC(=O)OCCCC,K,[6],8.54 M⁻¹ s⁻¹
